Measured values reported in patent publication US8778987B2, “Use of 4-hydroxychalcone derivatives for masking an unpleasant taste” (Symrise AG, priority 2008, dated 2014).

Legend:
Type in all cases: in vivo
[1] = system: bitter impression of aqueous caffeine solution; assay: Reducing bitterness of a bitter substance solution, rated by a panel of experts (caffeine); conditions: 500 ppm caffeine; for Bitter impression (1-10) with: error = 95% confidence range
Experimental: (§1) In order to quantify the reduction in the bitter impression, the bitterness of an aqueous bitter substance solution and a sample containing the same quantity of bitter substance and a varying quantity of the exemplary compound, was determined by a panel of experts (rating 0 [not bitter] to 10 [extremely bitter]). Evaluation took place by calculating the reduction (in %) in the bitter impression from the average values of the assessments of the bitter substance solution or the solutions containing bitter substance and exemplary compound. […] (2,4-DHB) was used as a comparison from U.S. Pat. No. 5,643,941.

[2] = system: bitter impression of aqueous quinine hydrochloride solution; assay: Reducing bitterness of a bitter substance solution, rated by a panel of experts (quinine hydrochloride); conditions: 30 ppm substance, 5 ppm quinine hydrochloride
Experimental: as §1

[3] = system: bitter impression of aqueous salicin solution; assay: Reducing bitterness of a bitter substance solution, rated by a panel of experts (salicin); conditions: 30 ppm substance, 250 ppm salicin
Experimental: as §1

[4] = system: taste impressions of meat stock with 0.4 wt. % sodium chloride and 0.4 wt. % potassium chloride; assay: Reduction in unpleasant taste impressions of potassium chloride-containing meat stock (triangle difference testing); conditions: 30 ppm
Experimental: A fat- and common salt-free meat stock is prepared with 0.4 wt. % sodium chloride and 0.4 wt. % potassium chloride (in each case relative to total weight) (comparison solution A). The same solution is prepared again and a quantity of phloretin (compound 4 from Example 1) is added. Solution A is served up to the testers once with the designation “standard solution”, and at the same time solution A and solution B are served up as “test solution 1” or “test solution 2” in a random order unknown to the respective tester (i.e. solutions A and B may have different designations for different testers; each tester has to test three solutions). In a first test phase, the testers are asked whether one of the three solutions tastes different from the other two (triangle difference testing). If the response to this question is “No”, the test is stopped for that tester. If the response to this question is “Yes”, the tester has to quantify the flavor qualities, listed below, of “test solution 1” or “test solution 2” deviating from the “standard solution” (relative to the “standard solution”, 0 flavor quality identical to the standard, −4 very much weaker than the standard, +4 very much stronger than the standard). Taking as basis the results from all the testers, the average of all deviations from the “standard solution” is calculated for the individual flavor qualities.

| Structure (SMILES) | % reduction in bitter impression ([1]; 100 ppm substance) | Tester positive (number of testers who were able to identify masking) ([1]; 100 ppm substance, 15 testers total) | Bitter impression (1-10) with ([1]; 100 ppm substance) | % reduction in bitter impression ([1]; 50 ppm substance) | Tester positive (number of testers who were able to identify masking) ([1]; 50 ppm substance) | Bitter impression (1-10) with ([1]; 50 ppm substance) | % reduction in bitter impression [2] | Tester positive (number of testers who were able to identify masking) ([2]; 15 testers total) | Bitter impression (1-10) with ([2]; error = 95% confidence range) | % reduction in bitter impression [3] | Tester positive (number of testers who were able to identify masking) ([3]; 15 testers total) | Bitter impression (1-10) with ([3]; error = 95% confidence range) | Positive testers ([4]; of 21 testers, triangle difference testing) | Aromaticity, average deviation from standard solution ([4]; scale −4 to +4) | Bitter, average deviation from standard solution ([4]; scale −4 to +4) | Mouth fullness, average deviation from standard solution ([4]; scale −4 to +4) | Sour, average deviation from standard solution ([4]; scale −4 to +4) | Sweet, average deviation from standard solution ([4]; scale −4 to +4) | Salty, average deviation from standard solution ([4]; scale −4 very much weaker to +4 very much stronger than the standard) |
| --- | --- | --- | --- | --- | --- | --- | --- | --- | --- | --- | --- | --- | --- | --- | --- | --- | --- | --- | --- |
| O=C(O)c1ccc(O)cc1O [2,4-DHB, 2,4-dihydroxybenzoic acid, reference compound] | 3%, n.s. | 9 | 5.0 ± 1.0 | – | – | – | – | – | – | – | – | – | – | – | – | – | – | – | – |
| O=C(CCc1ccc(O)cc1)c1c(O)cc(O)cc1O [Compound 4, 3-(4-hydroxyphenyl)-1-(2,4,6-trihydroxy-phenyl)propan-1-one] | – | – | – | 28%, p < 0.05 | 13 | 3.9 ± 1.8 | 25%, n.s. | 10 | 2.0 ± 1.4 | 18%, p < 0.1 | 10 | 6.0 ± 1.8 | 16 (p < 0.05) | −0.1 | −0.4 | 0.3 | 0.1 | 0.9 | −0.7 |
